Laboratory results: US20200121677A1, “SUBSTITUTED 6,7-DIHYDROPYRAZOLO[1,5-a]PYRAZINES AS NEGATIVE ALLOSTERIC MODULATORS OF MGLUR2 RECEPTORS” (Janssen Pharmaceutica NV, priority 2014, published 2020)

Target: human mGlu2 receptor (Homo sapiens, UniProt Q14416)
Test: [35S]GTPγS binding assay, mGluR2 negative allosteric modulation (membranes from CHO cells transfected with human mGlu2 receptor, glutamate ~EC80 60 μM);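 note: membranes preincubated 30 min at 30 °C with compound plus glutamate, then [35S]GTPγS (0.1 nM) incorporation measured over another 30 min at 30 °C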
Details: for GTPγS - hmGluR2 anGT pIC50: membranes with human mGlu2 receptor; for GTPγS - hmGluR2 anGT pIC50 / IC50: glutamate ~EC80 (60 μM), pIC50 = -log IC50 (M); for GTPγS - hmGluR2 anGT Emax: relative maximal effect: maximal % inhibition relative to the control glutamate response; for IC50: GTPγS - hmGluR2 anGT pIC50, membranes with human mGlu2 receptor; for Emax: read-out: GTPγS - hmGluR2 anGT Emax, relative maximal effect: maximal % inhibition relative to the control glutamate response
Experimental: The [^35S]GTPγS binding assay is a functional membrane-based assay used to study G-protein coupled receptor (GPCR) function whereby incorporation of a non-hydrolysable form of GTP, [^35S]GTPγS (guanosine 5′-triphosphate, labelled with gamma-emitting ^35S), is measured. […] Here we describe the use of the [^35S]GTPγS binding assay using membranes from cells transfected with the human mGlu2 receptor and adapted from Schaffhauser et al. (Molecular Pharmacology, 2003, 4:798-810) for the detection of the negative allosteric modulation (NAM) properties of the compounds of this invention.
CHO-cells were cultured to pre-confluence and stimulated with 5 mM butyrate for 24 h. Cells were then collected by scraping in PBS and cell suspension was centrifuged (10 min at 4000 RPM in benchtop centrifuge). Supernatant was discarded and pellet gently resuspended in 50 mM Tris-HCl, pH 7.4 by mixing with an Ultra Turrax homogenizer. The suspension was centrifuged at 12,400 RPM (Sorvall F14S-6x250Y) for 10 minutes and the supernatant discarded. The pellet was homogenized in 5 mM Tris-HCl, pH 7.4 using an Ultra Turrax homogenizer and centrifuged again (13,000 RPM, 20 min, 4° C.). The final pellet was resuspended in 50 mM Tris-HCl, pH 7.4 and stored at −80° C. in appropriate aliquots before use. Protein concentration was determined by the Bradford method (Bio-Rad, USA) with bovine serum albumin as standard.
Measurement of mGluR2 negative allosteric modulatory activity of test compounds was performed as follows. Test compounds and glutamate were diluted in assay buffer containing 10 mM HEPES acid, 10 mM HEPES salt, pH 7.4, 100 mM NaCl, 3 mM MgCl2 and 10 μM GDP. Human mGlu2 receptor-containing membranes were thawed on ice and diluted in assay buffer supplemented with 18 μg/ml saponin. Membranes were pre-incubated with compound together with a predefined (˜EC80) concentration of glutamate (60 μM) for 30 min at 30° C. After addition of [^35S]GTPγS (f.c. 0.1 nM), assay mixtures were shaken briefly and further incubated to allow [^35S]GTPγS incorporation on activation (30 minutes, 30° C.). Final assay mixtures contained 7 μg of membrane protein in 10 mM HEPES acid, 10 mM HEPES salt, pH 7.4, 100 mM NaCl, 3 mM MgCl2, 10 μM GDP and 10 μg/ml saponin. Total reaction volume was 200 μl. Reactions were terminated by rapid filtration through Unifilter-96 GF/B plates (Perkin Elmer, Massachusetts, USA) using a 96-well filtermate universal harvester. Filters were washed 6 times with ice-cold 10 mM NaH2PO4/10 mM Na2HPO4, pH 7.4. Filters were then air-dried, and 30 μl of liquid scintillation cocktail (Microscint-O) was added to each well. Membrane-bound radioactivity was counted in a Topcount.
Data were calculated as % of the control glutamate response, defined as the response that is generated upon addition of an EC80-equivalent concentration of glutamate.

Chain of human mGlu2 receptor (Q14416 19-872): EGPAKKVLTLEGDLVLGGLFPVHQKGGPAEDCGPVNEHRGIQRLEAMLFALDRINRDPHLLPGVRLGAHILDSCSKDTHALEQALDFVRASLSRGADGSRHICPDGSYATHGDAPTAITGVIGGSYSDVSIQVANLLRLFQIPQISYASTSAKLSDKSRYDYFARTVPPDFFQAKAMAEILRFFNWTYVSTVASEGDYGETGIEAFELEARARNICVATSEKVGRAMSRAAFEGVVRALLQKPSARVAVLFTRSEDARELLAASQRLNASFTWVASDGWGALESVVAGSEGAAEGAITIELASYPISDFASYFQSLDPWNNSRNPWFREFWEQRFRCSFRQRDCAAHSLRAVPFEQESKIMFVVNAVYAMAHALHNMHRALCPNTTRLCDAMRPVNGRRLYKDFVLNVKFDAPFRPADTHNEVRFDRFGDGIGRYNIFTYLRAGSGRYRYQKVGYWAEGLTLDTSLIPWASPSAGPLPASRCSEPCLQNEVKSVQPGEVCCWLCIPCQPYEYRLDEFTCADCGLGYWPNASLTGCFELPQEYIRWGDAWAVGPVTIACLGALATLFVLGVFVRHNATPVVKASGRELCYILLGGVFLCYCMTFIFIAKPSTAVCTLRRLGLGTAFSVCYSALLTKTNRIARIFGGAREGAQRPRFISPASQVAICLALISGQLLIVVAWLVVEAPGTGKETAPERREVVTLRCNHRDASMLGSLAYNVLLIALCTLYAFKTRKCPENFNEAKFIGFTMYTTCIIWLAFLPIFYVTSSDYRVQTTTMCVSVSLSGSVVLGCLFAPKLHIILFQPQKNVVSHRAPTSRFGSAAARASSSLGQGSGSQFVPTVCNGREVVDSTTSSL

SMILES | GTPγS - hmGluR2 anGT pIC50 | GTPγS - hmGluR2 anGT Emax [%] | IC50 [M] | Emax [%]
COCC1CN(c2ccc(C(F)(F)F)cc2)C(=O)c2c(C(=O)Nc3cnccn3)cnn21 (single isomer, unassigned) [compound 155] | 6.48 | 106 |  | 
COCC1CN(c2ccc(C(F)(F)F)c(Cl)c2)C(=O)c2c(C(=O)Nc3cccnc3)cnn21 (single isomer, unassigned) [compound 157] |  |  | 2.82e-07 | 104
C[C@H]1CN(c2ccc(C(F)(F)F)c(CF)c2)C(=O)c2c(C(=O)Nc3cccnc3)cnn21 [compound 53] | 8.61 | 114 |  | 
C[C@H]1CN(c2ccc(Cl)c(Cl)c2)C(=O)c2c(C(=O)Nc3ccc(F)nc3)cnn21 [compound 56] | 8.53 | 104 |  | 
C[C@H]1CN(c2ccc(C(F)(F)F)cc2)C(=O)c2c(C(=O)NC3CCOCC3)cnn21 [compound 66] |  |  | 1.86e-07 | 103
C[C@H]1CN(c2ccc(C(F)(F)F)cc2)C(=O)c2c(C(=O)NCc3ccccc3)cnn21 [compound 67] |  |  | 2e-07 | 104
C[C@H]1CN(c2ccc(C(F)(F)F)cc2)C(=O)c2c(C(=O)NC(C)(C)C)cnn21 [compound 68] |  |  | 2.63e-07 | 102
C[C@H]1CN(c2ccc(C(F)(F)F)cc2)C(=O)c2c(C(=O)NC=O)cnn21 [compound 134] |  |  | 6.31e-08 | 103
COCC1CN(c2ccc(C(F)(F)F)cc2)C(=O)c2c(C(=O)Nc3cnccn3)cnn21 (stereo not shown) [compound 163] |  |  | 1.02e-08 | 107

Next, values leading:

GTPγS - hmGluR2 anGT pIC50 | GTPγS - hmGluR2 anGT Emax [%] | IC50 [M] | Emax [%] | SMILES
8.03 | 106 |  |  | COCC1CN(c2ccc(C(F)(F)F)cc2)C(=O)c2c(C(=O)Nc3cccnc3)cnn21 (racemic) [compound 165]
6.10 | 108 |  |  | COCC1CN(c2ccc(C(F)(F)F)cc2)C(=O)c2c(C(=O)Nc3cccnc3)cnn21 (single isomer, unassigned) [compound 159]
 | 106 | 1.1e-09 |  | C[C@H]1CN(c2ccc(C(F)(F)F)cc2)C(=O)c2c(C(=O)Nc3cncc(F)c3)cnn21 [13a]
 |  | 4.79e-08 | 110 | C[C@H]1CN(c2ccc(C(F)(F)F)cc2)C(=O)c2c(C(=O)Nc3ncccc3F)cnn21 [compound 12]
7.39 | 107 |  |  | Cc1cccc(NC(=O)c2cnn3c2C(=O)N(c2ccc(C(F)(F)F)cc2)C[C@@H]3C)n1 [compound 17]
 |  | 5.62e-09 | 101 | C[C@H]1CN(c2ccc(C(F)(F)F)cc2)C(=O)c2c(C(=O)Nc3ccc(F)nc3)cnn21 [compound 55, (7S)—N-(6-fluoro-3-pyridyl)-7-methyl-4-oxo-5-[4-(trifluoromethyl)phenyl]-6,7-dihydropyrazolo[1,5-a]pyrazine-3-carboxamide]
 |  | 1.7e-09 | 102 | C[C@H]1CN(c2ccc(C(F)(F)F)cc2)C(=O)c2c(C(=O)Nc3ccccc3)cnn21 [compound 57, (7S)-7-Methyl-4-oxo-N-phenyl-5-[4-(trifluoromethyl)phenyl]-6,7-dihydropyrazolo[1,5-a]pyrazine-3-carboxamide]
 |  | 4.57e-07 | 103 | CNC(=O)c1cnn2c1C(=O)N(c1ccc(C(F)(F)F)cc1)C[C@@H]2C [compound 69]
7.67 | 112 |  |  | COc1ccc(NC(=O)c2cnn3c2C(=O)N(c2ccc(C(F)(F)F)cc2)C[C@@H]3C)nc1 [compound 102]
 |  | 6.92e-07 | 111 | Cc1cc(C(=O)NC(=O)c2cnn3c2C(=O)N(c2ccc(C(F)(F)F)cc2)C[C@@H]3C)ccn1 [compound 135, (7S)-7-Methyl-N-(2-methylpyridine-4-carbonyl)-4-oxo-5-[4-(trifluoromethyl)phenyl]-6,7-dihydropyrazolo[1,5-a]pyrazine-3-carboxamide]
7.69 | 104 |  |  | COCc1cc(NC(=O)c2cnn3c2C(=O)N(c2ccc(C(F)(F)F)cc2)C[C@@H]3C)ccn1 [compound 149]
